Measurements published in patent publication US4091006A, “Esters of 3-hydroxyindone compounds” (priority 1975, dated 1978).
Values after ≈ are worked out from the molar mass of the structure shown.

System: adults and nymphal stages of the two-spotted mite
Test: Mite Foliage Spray Test
Type: in vivo, Tetranychus urticae (Koch)
Details: 4 days
Source text: (§1) The test procedures were as follows:
(§2) Compositions were rated on the basis of percent kill with a rating of 1 indicating no mortality; 3 signifying an approximately 50% mortality and 5 indicating 100% mortality at the indicated dosage.

Question: How did the “Mite Adult rating” value turn out when Cc1cc(C)c(C2=C(OC(=O)C(C)C)c3ccccc3C2=O)c(C)c1 [2-(2',4',6'-Trimethylphenyl)-3-(isobutyryloxy)indone] was run?
Answer: 5 (100% mortality)

Question: Cc1cc(C)c(C2=C(OC(=O)CC3C=CCC3)c3ccccc3C2=O)c(C)c1 (stereo not shown) [2-(2',4',6'-Trimethylphenyl)-3-(cyclopent-2-en-1-ylacetoxy)indone] was tested. Which “Mite Adult rating” value did it give?
Answer: 5 (100% mortality)

System: Mite Adults
Test: whole plant or invertebrate
Details: Tetranychus urticae, read-out: Mite Adults LD50
Protocol: Adults and nymphal stages of the two-spotted mite (tetranychus urticae (Koch)), reared on Tendergreen bean plants at 80±5° F. and 50±5 percent relative humidity, were the test organisms. Infested leaves from a stock culture were placed on the primary leaves of two bean plants 6 to 8 inches in height, growing in a 21/2 inch clay pot. 150-200 Mites, a sufficient number for testing, transferred from the excised leaves to the fresh plants in a period of 24 hours. Following the 24 hour transfer period, the excised leaves were removed from the infested plants. The test compounds were formulated by diluting the stock suspension with water to provide suspensions containing the desired amount of test compound per million parts of final formulation. The potted plants (one pot per compound) were placed on a revolving turntable and sprayed with 100-110 milliliters of test compound formulation by use of a DeVilbis spray gun set at 40 psi. air pressure. This application, which lasted 30 seconds, was sufficient to wet the plants to run-off. As a control, 100-110 milliliters of a water solution containing acetone and emulsifier in the same concentrations as the test compound formulation, but containing no test compound, were also sprayed on infested plants. The sprayed plants were held at 80±5° F. and 50±5 percent relative humidity for 4 days, after which, a mortality count of motile forms was made. Microscopic examination for motile forms was made on the leaves of the test plants. Any individual which was capable of locomotion upon prodding was considered living.
(§3) Side by side comparison tests were conducted to determine the effectiveness of selected enol ester compounds relative to (bis(p-chlorophenyl)trichlorethanol) a miticide sold under the trademark Kelthane and ovex (p-chlorophenyl-p-chlorobenzene sulfonate) two widely used commercial miticides.

Question: O=S(=O)(Oc1ccc(Cl)cc1)c1ccc(Cl)cc1 [Ovex, p-chlorophenyl-p-chlorobenzene sulfonate, reference compound] was tested. Which LC50 did it give?
Answer: 1000 µg/mL

Question: OC(c1ccc(Cl)cc1)(c1ccc(Cl)cc1)C(Cl)(Cl)Cl [Kelthane, bis(p-chlorophenyl)trichlorethanol] was tested. Which LC50 did it give?
Answer: 20 µg/mL (≈ 54 µM)

Same assay, conditions: concentration to kill 95 percent

Question: Which “Mite Adults LD95” value does the source give for OC(c1ccc(Cl)cc1)(c1ccc(Cl)cc1)C(Cl)(Cl)Cl [Kelthane, bis(p-chlorophenyl)trichlorethanol] here?
Answer: 65 ppm

System: Tomato
Test: Phytotoxicity, tomato
Details: 2500 ppm, 10 days
Protocol: (§5) Experiments were also conducted to determine the phytotoxicity of representative enol ester compositions with respect to healthy fresh plants. […] The test plants were sprayed in accordance with the procedure described above for the Mite Foliage Spray Test so as to deliver approximately 100 milliliters of test solution to the leaves of each plant tested. The sprayed plants and controls were set aside for approximately 1 hour to allow the solutions to dry and were then placed in the greenhouse. After 10 days the plants were visually inspected to determine the extent of foliage injury. A rating of 1 indicates no perceptible injury; 5 indicates the plant was dead and ratings of 2, 3 and 4 indicate intermediate degrees of injury based upon the number and extent to which leaves were injured.

Question: For Cc1cc(C)c(C2=C(OC(=O)C(C)C)c3ccccc3C2=O)c(C)c1 [2-(2',4',6'-Trimethylphenyl)-3-(isobutyryloxy)indone], which “Phytotoxicity Rating, Tomato” value is on record?
Answer: 2

Question: For Cc1cc(C)c(C2=C(OC(=O)CC3C=CCC3)c3ccccc3C2=O)c(C)c1 (stereo not shown) [2-(2',4',6'-Trimethylphenyl)-3-(cyclopent-2-en-1-ylacetoxy)indone], which “Phytotoxicity Rating, Tomato” value is on record?
Answer: 1

System: Perennial rye grass, crabgrass, red root pigweed, mustard
Test: Preliminary Herbicide Seed Germination Test
Details: rating/maximum 15: 100 ppm only, crabgrass omitted, each rated 1 (no injury) to 5 (no seedlings emerged)

Question: For Cc1cc(C)c(C2=C(OC(=O)CC3C=CCC3)c3ccccc3C2=O)c(C)c1 (stereo not shown) [2-(2',4',6'-Trimethylphenyl)-3-(cyclopent-2-en-1-ylacetoxy)indone], which “Herbicide (total preemergence rating)” value is on record?
Answer: 11/15

Same assay, conditions: rating/maximum 40: 100 and 1000 ppm, four species, each rated 1 (no injury) to 5 (no seedlings emerged), 10-12 days

Question: How did the “Herbicide (total preemergence rating)” value turn out when Cc1cc(C)c(C2=C(OC(=O)C(C)C)c3ccccc3C2=O)c(C)c1 [2-(2',4',6'-Trimethylphenyl)-3-(isobutyryloxy)indone] was run?
Answer: 37/40

System: Mite Ova
Test: whole plant or invertebrate
Details: Tetranychus urticae, read-out: Mite Ova LD50
Protocol: The test organism was the egg of the two-spotted mite (Tetranychus urticae (Koch)), as obtained from adults reared on Tendergreen bean plants under controlled conditions of 80±5° F. and 50±5 percent relative humidity. Heavily infested leaves from a stock culture were placed on the primary leaves of two bean plants 6 to 8 inches in height, growing in a 21/2 inch clay pot. Females were allowed to oviposit for a period of 48 hours and then the leaves of the infested plants were dipped in a solution containing 800 parts of tetraethyl pyrophosphate per million parts of water in order to destroy the reproductory forms and thus prevent further egg laying. […] The plants were allowed to dry thoroughly. […] The potted plants (one pot per compound) were placed on a revolving turntable and sprayed with 100-110 milliliters of test compound formulation by use of a DeVilbis spray gun set at 40 psig. air pressure. This application, which lasted 30 seconds, was sufficient to wet the plants to run-off. As a control, 100-110 milliliters of a water solution containing acetone and emulsifier in the same concentrations as the test compound formulation, but containing no test compound, were also sprayed on plants infested with eggs. The sprayed plants were held at 80±5° F. and 50±5 percent relative humidity for 4 days, after which a microscopic examination was made of unhatched (dead) and hatched (living) eggs.
as §3

Question: For O=S(=O)(Oc1ccc(Cl)cc1)c1ccc(Cl)cc1 [Ovex, p-chlorophenyl-p-chlorobenzene sulfonate, reference compound], which LC50 is on record?
Answer: 200 µg/mL

Question: Which LC50 does the source give for OC(c1ccc(Cl)cc1)(c1ccc(Cl)cc1)C(Cl)(Cl)Cl [Kelthane, bis(p-chlorophenyl)trichlorethanol] here?
Answer: 370 µg/mL (≈ 999 µM)

Same assay, conditions: concentration to kill 95 percent

Question: With O=S(=O)(Oc1ccc(Cl)cc1)c1ccc(Cl)cc1 [Ovex, p-chlorophenyl-p-chlorobenzene sulfonate, reference compound] as the molecule, how does the “Mite Ova LD95” value read?
Answer: 300 ppm

Question: OC(c1ccc(Cl)cc1)(c1ccc(Cl)cc1)C(Cl)(Cl)Cl [Kelthane, bis(p-chlorophenyl)trichlorethanol] was tested. Which “Mite Ova LD95” value did it give?
Answer: 700 ppm

System: Corn
Test: Phytotoxicity, corn
Details: 2500 ppm, 10 days

Question: With Cc1cc(C)c(C2=C(OC(=O)C(C)C)c3ccccc3C2=O)c(C)c1 [2-(2',4',6'-Trimethylphenyl)-3-(isobutyryloxy)indone] as the molecule, how does the “Phytotoxicity Rating, Corn” value read?
Answer: 4

Question: For Cc1cc(C)c(C2=C(OC(=O)CC3C=CCC3)c3ccccc3C2=O)c(C)c1 (stereo not shown) [2-(2',4',6'-Trimethylphenyl)-3-(cyclopent-2-en-1-ylacetoxy)indone], which “Phytotoxicity Rating, Corn” value is on record?
Answer: 1

System: Bean
Test: Phytotoxicity, bean
Details: 2500 ppm, 10 days
Protocol: as §5

Question: With Cc1cc(C)c(C2=C(OC(=O)C(C)C)c3ccccc3C2=O)c(C)c1 [2-(2',4',6'-Trimethylphenyl)-3-(isobutyryloxy)indone] as the molecule, how does the “Phytotoxicity Rating, Bean” value read?
Answer: 1

Question: For Cc1cc(C)c(C2=C(OC(=O)CC3C=CCC3)c3ccccc3C2=O)c(C)c1 (stereo not shown) [2-(2',4',6'-Trimethylphenyl)-3-(cyclopent-2-en-1-ylacetoxy)indone], which “Phytotoxicity Rating, Bean” value is on record?
Answer: 1

System: eggs of the two-spotted mite
Test: Fumigant toxicity, Method 1 (deposit in pie plate)
Type: in vivo
Details: deposit approx. 160 μg per square cm, 4 days
Protocol: (§4) Two methods were used to evaluate fumigant properties:
Method 1: Fifty mg. of each compound were dissolved in 5 ml. of acetone and poured into a 20 cm. (bottom diameter) Pyrex No. 210 pie plate. The acetone was allowed to evaporate leaving a deposit of approximately 160 μg. per square cm. The plate was then placed in the bottom of a 50 pound metal lard container (about 30 cm. in diameter and 34 cm. high). Two excised bean plants, held in a 250 ml. Erlenmeyer flask containing 100 ml. of tap water and infested with eggs of the two-spotted mite, were placed in the center of the pie plate. The container was held in the insectary (temperature 80±5° F., 50±5% R. H.) for four days before mortality determinations were made.

Question: With Cc1cc(C)c(C2=C(OC(=O)C(C)C)c3ccccc3C2=O)c(C)c1 [2-(2',4',6'-Trimethylphenyl)-3-(isobutyryloxy)indone] as the molecule, how does the “Fumigant Toxicity Method 1” value read?
Answer: 5 (80-100% control)

Question: With Cc1cc(C)c(C2=C(OC(=O)CC3C=CCC3)c3ccccc3C2=O)c(C)c1 (stereo not shown) [2-(2',4',6'-Trimethylphenyl)-3-(cyclopent-2-en-1-ylacetoxy)indone] as the molecule, how does the “Fumigant Toxicity Method 1” value read?
Answer: 1

System: egg forms of the two-spotted mite
Test: Fumigant toxicity, Method 2 (treated plants near untreated infested plants)
Type: in vivo
Details: 500 ppm dip, 4 days
Protocol: as §4
Method 2: Excised bean plants infested with egg forms of the two-spotted mite were dipped in an aqueous preparation (500 ppm) of the test compound. The treated plants were transferred to 250 ml. Erlenmeyer flasks containing 100 ml. of tap water. Four flasks holding treated plants were evenly spaced around a similar flask in which were placed untreated mite-infested plants so that the leaves of the treated foliage were in close proximity (1-3 inches) to the untreated plants. Four days later mortality determinations were made.

Question: How did the “Fumigant Toxicity Method 2” value turn out when Cc1cc(C)c(C2=C(OC(=O)C(C)C)c3ccccc3C2=O)c(C)c1 [2-(2',4',6'-Trimethylphenyl)-3-(isobutyryloxy)indone] was run?
Answer: 5 (80-100% control)

Question: Cc1cc(C)c(C2=C(OC(=O)CC3C=CCC3)c3ccccc3C2=O)c(C)c1 (stereo not shown) [2-(2',4',6'-Trimethylphenyl)-3-(cyclopent-2-en-1-ylacetoxy)indone] was tested. Which “Fumigant Toxicity Method 2” value did it give?
Answer: 1

System: egg of the two-spotted mite
Test: Mite Ovicide Test
Type: in vivo, Tetranychus urticae (Koch)
Details: spray on eggs, 4 days
Source text: as §1
The plants were allowed to dry thoroughly.
as §2

Question: Cc1cc(C)c(C2=C(OC(=O)C(C)C)c3ccccc3C2=O)c(C)c1 [2-(2',4',6'-Trimethylphenyl)-3-(isobutyryloxy)indone] was tested. Which “Mite Ova rating” value did it give?
Answer: 5 (100% mortality)

Question: Which “Mite Ova rating” value does the source give for Cc1cc(C)c(C2=C(OC(=O)CC3C=CCC3)c3ccccc3C2=O)c(C)c1 (stereo not shown) [2-(2',4',6'-Trimethylphenyl)-3-(cyclopent-2-en-1-ylacetoxy)indone] here?
Answer: 5 (100% mortality)

System: Cotton
Test: Phytotoxicity, cotton
Details: 2500 ppm, 10 days
Protocol: as §5

Question: For Cc1cc(C)c(C2=C(OC(=O)C(C)C)c3ccccc3C2=O)c(C)c1 [2-(2',4',6'-Trimethylphenyl)-3-(isobutyryloxy)indone], which “Phytotoxicity Rating, Cotton” value is on record?
Answer: 2

Question: How did the “Phytotoxicity Rating, Cotton” value turn out when Cc1cc(C)c(C2=C(OC(=O)CC3C=CCC3)c3ccccc3C2=O)c(C)c1 (stereo not shown) [2-(2',4',6'-Trimethylphenyl)-3-(cyclopent-2-en-1-ylacetoxy)indone] was run?
Answer: 2
